Assays:
Test in all cases: Test B pre-/postemergence
Format in all cases: in vivo
Design in all cases: key: 0 is no effect; 10 is complete control
[1] = tested on: sugar beet (Beta vulgaris)
How it was run: (§1)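 Response scores run from 0, meaning no effect, to 10, meaning complete control, assigned by eye relative to controls twelve to sixteen days after spraying. Treatment was both preemergence on planted seed and postemergence on plants at the 1- to 4-leaf stage.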

[2] = tested on: crabgrass (Digitaria sanguinalis)
How it was run: as §1

soybean (Glycine max) = tested on: soybean (Glycine max)
How it was run: as §1

[3] = tested on: momingglory (Ipomoea hederacea)
How it was run: as §1

[4] = tested on: pigweed (Amaranthus retroflexus)
How it was run: as §1

corn (Zea mays) = tested on: corn (Zea mays)
How it was run: as §1

[5] = tested on: blackgrass (Alopecurus myosuroides)
How it was run: as §1

rape (Brassica napus) = tested on: rape (Brassica napus)
How it was run: as §1

wild oat (Avena fatua) = tested on: wild oat (Avena fatua)
How it was run: as §1

[6] = tested on: wheat (Triticum aestivum)
How it was run: as §1

[7] = tested on: velvetleaf (Abutilon theophrasti)
How it was run: as §1

[8] = tested on: bedstraw (Galium aparine)
How it was run: as §1

[9] = tested on: cocklebur (Xanthium strumarium)
How it was run: as §1

How did the “Plant response rating, Sugarbeets” value ([1]; Rate 62 g/ha, Postemergence) turn out when `Cc1cnc(-n2ccc(C(F)(F)F)n2)nc1Cc1cccc(C(F)(F)F)c1` [Example 2, 5-methyl-4-[[3-(trifluoromethyl)phenyl]methyl]-2-[3-(trifluoromethyl)-1H-pyrazol-1-yl]pyrimidine] was run?
Its value is 9.

And the “Sugarbeets plant response rating” value ([1]; Rate 62 g/ha, Preemergence)?
Its value is 10.

And the “Plant response rating, Sugarbeets” value ([1]; Rate 125 g/ha, Postemergence)?
The value was 9.

And the “Sugarbeets plant response rating” value ([1]; Rate 125 g/ha, Preemergence)?
Its value is 10.

And the “Plant response rating, Sugarbeets” value ([1]; Rate 250 g/ha, Postemergence)?
The value was 9.

What about the “Plant response rating, Sugarbeets” value ([1]; Rate 250 g/ha, Preemergence) of the same compound?
Its value is 10.

And the “Plant response rating, Sugarbeets” value ([1]; Rate 500 g/ha, Postemergence)?
The value was 9.

And the “Plant response rating, Sugarbeets” value ([1]; Rate 500 g/ha, Preemergence)?
Its value is 10.

And the “Plant response rating, Crabgrass” value ([2]; Rate 62 g/ha, Postemergence)?
Its value is 8.

What about the “Crabgrass plant response rating” value ([2]; Rate 62 g/ha, Preemergence) of the same compound?
Its value is 9.

And the “Plant response rating, Crabgrass” value ([2]; Rate 125 g/ha, Postemergence)?
Its value is 9.

What about the “Crabgrass plant response rating” value ([2]; Rate 125 g/ha, Preemergence) of the same compound?
The value was 10.

What about the “Plant response rating, Crabgrass” value ([2]; Rate 250 g/ha, Postemergence) of the same compound?
Its value is 9.

And the “Plant response rating, Crabgrass” value ([2]; Rate 250 g/ha, Preemergence)?
Its value is 10.

And the “Plant response rating, Crabgrass” value ([2]; Rate 500 g/ha, Postemergence)?
The value was 10.

What about the “Plant response rating, Crabgrass” value ([2]; Rate 500 g/ha, Preemergence) of the same compound?
Its value is 10.

And the “Plant response rating, Soybean” value (soybean (Glycine max); Rate 62 g/ha, Postemergence)?
Its value is 6.

What about the “Soybean plant response rating” value (soybean (Glycine max); Rate 62 g/ha, Preemergence) of the same compound?
Its value is 0.

What about the “Plant response rating, Soybean” value (soybean (Glycine max); Rate 125 g/ha, Postemergence) of the same compound?
Its value is 7.

And the “Soybean plant response rating” value (soybean (Glycine max); Rate 125 g/ha, Preemergence)?
Its value is 1.

What about the “Plant response rating, Soybean” value (soybean (Glycine max); Rate 250 g/ha, Postemergence) of the same compound?
Its value is 8.

What about the “Plant response rating, Soybean” value (soybean (Glycine max); Rate 250 g/ha, Preemergence) of the same compound?
Its value is 2.

And the “Plant response rating, Soybean” value (soybean (Glycine max); Rate 500 g/ha, Postemergence)?
Its value is 8.

And the “Plant response rating, Soybean” value (soybean (Glycine max); Rate 500 g/ha, Preemergence)?
The value was 5.

What about the “Plant response rating, Morningglory” value ([3]; Rate 62 g/ha, Postemergence) of the same compound?
Its value is 8.

What about the “Morningglory plant response rating” value ([3]; Rate 62 g/ha, Preemergence) of the same compound?
The value was 7.

And the “Plant response rating, Morningglory” value ([3]; Rate 125 g/ha, Postemergence)?
The value was 9.

And the “Morningglory plant response rating” value ([3]; Rate 125 g/ha, Preemergence)?
Its value is 9.

And the “Plant response rating, Morningglory” value ([3]; Rate 250 g/ha, Postemergence)?
The value was 9.

And the “Plant response rating, Morningglory” value ([3]; Rate 250 g/ha, Preemergence)?
Its value is 10.

What about the “Plant response rating, Morningglory” value ([3]; Rate 500 g/ha, Postemergence) of the same compound?
Its value is 9.

What about the “Plant response rating, Morningglory” value ([3]; Rate 500 g/ha, Preemergence) of the same compound?
The value was 10.

And the “Plant response rating, Redroot pigweed” value ([4]; Rate 62 g/ha, Postemergence)?
Its value is 7.

And the “Redroot pigweed plant response rating” value ([4]; Rate 62 g/ha, Preemergence)?
The value was 10.

And the “Plant response rating, Redroot pigweed” value ([4]; Rate 125 g/ha, Postemergence)?
Its value is 9.

And the “Redroot pigweed plant response rating” value ([4]; Rate 125 g/ha, Preemergence)?
The value was 10.

What about the “Plant response rating, Redroot pigweed” value ([4]; Rate 250 g/ha, Postemergence) of the same compound?
Its value is 9.

What about the “Plant response rating, Redroot pigweed” value ([4]; Rate 250 g/ha, Preemergence) of the same compound?
Its value is 10.

What about the “Plant response rating, Redroot pigweed” value ([4]; Rate 500 g/ha, Postemergence) of the same compound?
Its value is 9.

And the “Plant response rating, Redroot pigweed” value ([4]; Rate 500 g/ha, Preemergence)?
Its value is 10.

What about the “Plant response rating, Corn” value (corn (Zea mays); Rate 62 g/ha, Postemergence) of the same compound?
Its value is 2.

And the “Corn plant response rating” value (corn (Zea mays); Rate 62 g/ha, Preemergence)?
The value was 0.

And the “Plant response rating, Corn” value (corn (Zea mays); Rate 125 g/ha, Postemergence)?
The value was 4.

And the “Corn plant response rating” value (corn (Zea mays); Rate 125 g/ha, Preemergence)?
The value was 1.

What about the “Plant response rating, Corn” value (corn (Zea mays); Rate 250 g/ha, Postemergence) of the same compound?
Its value is 6.

And the “Plant response rating, Corn” value (corn (Zea mays); Rate 250 g/ha, Preemergence)?
Its value is 1.

What about the “Plant response rating, Corn” value (corn (Zea mays); Rate 500 g/ha, Postemergence) of the same compound?
The value was 7.

What about the “Plant response rating, Corn” value (corn (Zea mays); Rate 500 g/ha, Preemergence) of the same compound?
The value was 2.

And the “Plant response rating, Blackgrass” value ([5]; Rate 62 g/ha, Postemergence)?
Its value is 3.

And the “Blackgrass plant response rating” value ([5]; Rate 62 g/ha, Preemergence)?
The value was 3.

And the “Plant response rating, Blackgrass” value ([5]; Rate 125 g/ha, Postemergence)?
The value was 6.

What about the “Blackgrass plant response rating” value ([5]; Rate 125 g/ha, Preemergence) of the same compound?
Its value is 7.

And the “Plant response rating, Blackgrass” value ([5]; Rate 250 g/ha, Postemergence)?
The value was 7.

What about the “Plant response rating, Blackgrass” value ([5]; Rate 250 g/ha, Preemergence) of the same compound?
The value was 10.

What about the “Plant response rating, Blackgrass” value ([5]; Rate 500 g/ha, Postemergence) of the same compound?
The value was 9.

And the “Plant response rating, Blackgrass” value ([5]; Rate 500 g/ha, Preemergence)?
Its value is 10.

What about the “Plant response rating, Rape” value (rape (Brassica napus); Rate 62 g/ha, Postemergence) of the same compound?
Its value is 9.

And the “Rape plant response rating” value (rape (Brassica napus); Rate 62 g/ha, Preemergence)?
The value was 10.

What about the “Plant response rating, Rape” value (rape (Brassica napus); Rate 125 g/ha, Postemergence) of the same compound?
The value was 9.

What about the “Rape plant response rating” value (rape (Brassica napus); Rate 125 g/ha, Preemergence) of the same compound?
The value was 10.

What about the “Plant response rating, Rape” value (rape (Brassica napus); Rate 250 g/ha, Postemergence) of the same compound?
Its value is 9.

And the “Plant response rating, Rape” value (rape (Brassica napus); Rate 250 g/ha, Preemergence)?
Its value is 10.

And the “Plant response rating, Rape” value (rape (Brassica napus); Rate 500 g/ha, Postemergence)?
The value was 10.

And the “Plant response rating, Rape” value (rape (Brassica napus); Rate 500 g/ha, Preemergence)?
Its value is 10.

And the “Plant response rating, Wild oats” value (wild oat (Avena fatua); Rate 62 g/ha, Postemergence)?
The value was 3.

And the “Wild oats plant response rating” value (wild oat (Avena fatua); Rate 62 g/ha, Preemergence)?
The value was 6.

What about the “Plant response rating, Wild oats” value (wild oat (Avena fatua); Rate 125 g/ha, Postemergence) of the same compound?
The value was 3.

What about the “Wild oats plant response rating” value (wild oat (Avena fatua); Rate 125 g/ha, Preemergence) of the same compound?
Its value is 9.

And the “Plant response rating, Wild oats” value (wild oat (Avena fatua); Rate 250 g/ha, Postemergence)?
Its value is 6.

And the “Plant response rating, Wild oats” value (wild oat (Avena fatua); Rate 250 g/ha, Preemergence)?
The value was 9.

What about the “Plant response rating, Wild oats” value (wild oat (Avena fatua); Rate 500 g/ha, Postemergence) of the same compound?
Its value is 7.

And the “Plant response rating, Wild oats” value (wild oat (Avena fatua); Rate 500 g/ha, Preemergence)?
Its value is 10.

And the “Plant response rating, Wheat” value ([6]; Rate 62 g/ha, Postemergence)?
Its value is 2.

And the “Wheat plant response rating” value ([6]; Rate 62 g/ha, Preemergence)?
The value was 1.

And the “Plant response rating, Wheat” value ([6]; Rate 125 g/ha, Postemergence)?
Its value is 2.

And the “Wheat plant response rating” value ([6]; Rate 125 g/ha, Preemergence)?
The value was 2.

What about the “Plant response rating, Wheat” value ([6]; Rate 250 g/ha, Postemergence) of the same compound?
Its value is 3.

And the “Plant response rating, Wheat” value ([6]; Rate 250 g/ha, Preemergence)?
The value was 3.

What about the “Plant response rating, Wheat” value ([6]; Rate 500 g/ha, Postemergence) of the same compound?
The value was 5.

What about the “Plant response rating, Wheat” value ([6]; Rate 500 g/ha, Preemergence) of the same compound?
The value was 3.

What about the “Plant response rating, Velvetleaf” value ([7]; Rate 62 g/ha, Postemergence) of the same compound?
The value was 8.

And the “Velvetleaf plant response rating” value ([7]; Rate 62 g/ha, Preemergence)?
The value was 6.

What about the “Plant response rating, Velvetleaf” value ([7]; Rate 125 g/ha, Postemergence) of the same compound?
The value was 9.

What about the “Velvetleaf plant response rating” value ([7]; Rate 125 g/ha, Preemergence) of the same compound?
The value was 6.

What about the “Plant response rating, Velvetleaf” value ([7]; Rate 250 g/ha, Postemergence) of the same compound?
The value was 9.

What about the “Plant response rating, Velvetleaf” value ([7]; Rate 250 g/ha, Preemergence) of the same compound?
The value was 8.

And the “Plant response rating, Velvetleaf” value ([7]; Rate 500 g/ha, Postemergence)?
The value was 9.

What about the “Plant response rating, Velvetleaf” value ([7]; Rate 500 g/ha, Preemergence) of the same compound?
Its value is 10.

What about the “Plant response rating, Bedstraw” value ([8]; Rate 62 g/ha, Postemergence) of the same compound?
Its value is 9.

And the “Bedstraw plant response rating” value ([8]; Rate 62 g/ha, Preemergence)?
Its value is 10.

What about the “Plant response rating, Bedstraw” value ([8]; Rate 125 g/ha, Postemergence) of the same compound?
Its value is 9.

What about the “Bedstraw plant response rating” value ([8]; Rate 125 g/ha, Preemergence) of the same compound?
Its value is 10.

And the “Plant response rating, Bedstraw” value ([8]; Rate 250 g/ha, Postemergence)?
Its value is 9.

What about the “Plant response rating, Bedstraw” value ([8]; Rate 250 g/ha, Preemergence) of the same compound?
The value was 10.

And the “Plant response rating, Bedstraw” value ([8]; Rate 500 g/ha, Postemergence)?
Its value is 9.

What about the “Plant response rating, Bedstraw” value ([8]; Rate 500 g/ha, Preemergence) of the same compound?
Its value is 10.

And the “Plant response rating, Cocklebur” value ([9]; Rate 62 g/ha, Postemergence)?
The value was 8.

What about the “Cocklebur plant response rating” value ([9]; Rate 62 g/ha, Preemergence) of the same compound?
Its value is 0.

What about the “Plant response rating, Cocklebur” value ([9]; Rate 125 g/ha, Postemergence) of the same compound?
Its value is 8.

And the “Cocklebur plant response rating” value ([9]; Rate 125 g/ha, Preemergence)?
Its value is 1.

And the “Plant response rating, Cocklebur” value ([9]; Rate 250 g/ha, Postemergence)?
Its value is 8.

And the “Plant response rating, Cocklebur” value ([9]; Rate 250 g/ha, Preemergence)?
Its value is 1.

What about the “Plant response rating, Cocklebur” value ([9]; Rate 500 g/ha, Postemergence) of the same compound?
The value was 9.

And the “Plant response rating, Cocklebur” value ([9]; Rate 500 g/ha, Preemergence)?
The value was 3.

Reference: patent US6525001B1, “Substituted pyrimidine and pyridine herbicides” (Mid-American Commercialization Corporation, priority 1997, dated 2003)
